Data as given in US7964609B2, “Use of mGluR5 antagonists for the treatment of gerd” (AstraZeneca AB, priority 2002, dated 2011).

System: transient lower esophageal sphincter relaxations (TLESRs)
Test: Screening for compounds active against TLESR, Barostat model (air infusion to an intragastric pressure of 10±1 mmHg)
Type: in vivo, Adult Labrador retrievers
Conditions: dose 1 μmol/kg/h, infusion during 60 min
Description: Adult Labrador retrievers of both genders, trained to stand in a Pavlov sling, are used. Mucosa-to-skin esophagostomies are formed and the dogs are allowed to recover completely before any experiments are done. In brief, after fasting for approximately 17 h with free supply of water, a multilumen sleeve/sidehole assembly ([…], Adelaide, South Australia) is introduced through the esophagostomy to measure gastric, lower esophageal sphincter (LES) and esophageal pressures. The assembly is perfused with water using a low-compliance manometric perfusion pump ([…], Adelaide, South Australia). An air-perfused tube is passed in the oral direction to measure swallows, and an antimony electrode monitored pH, 3 cm above the LES. All signals are amplified and acquired on a personal computer at 10 Hz. When a baseline measurement free from fasting gastric/LES phase III motor activity has been obtained, placebo (0.9% NaCl) or test compound is administered intravenously (i.v., 0.5 ml/kg) in a foreleg vein. […] Immediately following the meal, air is insufflated at 40 ml/min. In an alternative model (Barostat model), the infusion of the nutrient meal is followed by air infusion at a rate of 500 ml/min until a intragastric pressure of 10±1 mmHg is obtained. […]

N#Cc1cc(F)cc(-c2nc(-c3ccc(F)cn3)no2)c1 [3-fluoro-5-[3-(5-fluoropyridin-2-yl)-1,2,4-oxadiazol-5-yl]benzonitrile]
% INHIBITION ± SEM (N): 70 ± 4 (3) %
